Laboratory results reported in ChEMBL document CHEMBL4837249, “Discovery of Potent Antiallergic Agents Based on an o-Aminopyridinyl Alkynyl Scaffold” (J Med Chem, 2021).
Values belong to the compound of their own block, whether it stands above or below them.

Tests used:
[1] = Therapeutic index, ratio of CC50 for rat RBL2H3 cells to IC50 for Antiallergic activity against anti-DNP-IgE sensitized rat RBL-2H3 cells; assay type: toxicity; settings: read-out: TI
[2] = biological target: Macrophage colony-stimulating factor 1 receptor (Homo sapiens, UniProt P07333); test: Inhibition of human recombinant CSF1R using ATP/Ulight-TK peptide incubated for 15 mins
RBL-2H3 [3] = test: Antiallergic activity against anti-DNP-IgE sensitized rat RBL-2H3 cells assessed as […] of degranulation by measuring beta-hexosaminidase release using P-nitrophenyl-N-acetyl-D-glucosamide as substrate at 0.04 uM measured after 1 hr by microplate reader relative to control; assay type: functional
[4] = biological target: 1-phosphatidylinositol 4,5-bisphosphate phosphodiesterase gamma-1 (Rattus norvegicus) (UniProt P10686); test: Inhibition of PLCgamma1 phosphorylation in rat RBL-2H3 cells assessed as inhibition of Fc epsilonRI-mediated signal transduction by Western blot analysis; assay type: cell-based; settings: dose 8-200 nM
RBL-2H3 [5] = test: Inhibition of p38 MAPK phosphorylation in rat RBL-2H3 cells assessed as inhibition of Fc epsilonRI-mediated signal transduction by Western blot analysis; assay type: cell-based; settings: dose 8-200 nM
[6] = Half life in BALB/c mouse at 20 mg/kg, po measured up to 24 hrs by LC-MS/MS analysis; assay type: ADME, organism-based; settings: in vivo
[7] = Cmax in BALB/c mouse at 20 mg/kg, po measured up to 24 hrs by LC-MS/MS analysis; assay type: ADME, organism-based; design: route oral, dose 20 mg/kg, time <=24; settings: in vivo
[8] = AUC (0 to t) in BALB/c mouse at 20 mg/kg, po measured up to 24 hrs by LC-MS/MS analysis; assay type: ADME, organism-based; design: route oral, dose 20 mg/kg, time <=24; settings: in vivo
[9] = MRT in BALB/c mouse at 20 mg/kg, po measured up to 24 hrs by LC-MS/MS analysis; assay type: ADME, organism-based; settings: in vivo
[10] = Volume of distribution at steady state in BALB/c mouse at 2 mg/kg, iv measured up to 24 hrs by LC-MS/MS analysis; assay type: ADME, organism-based; settings: in vivo, read-out: Vdss
[11] = Oral bioavailability in BALB/c mouse at 20 mg/kg measured up to 24 hrs by LC-MS/MS analysis; assay type: ADME, organism-based; settings: in vivo
[12] = Half life in BALB/c mouse at 2 mg/kg, iv measured up to 24 hrs by LC-MS/MS analysis; assay type: ADME, organism-based; settings: in vivo
[13] = AUC (0 to t) in BALB/c mouse at 2 mg/kg, iv measured up to 24 hrs by LC-MS/MS analysis; assay type: ADME, organism-based; design: route intravenous, dose 2 mg/kg, time <=24; settings: in vivo
[14] = MRT in BALB/c mouse at 2 mg/kg, iv measured up to 24 hrs by LC-MS/MS analysis; assay type: ADME, organism-based; settings: in vivo
[15] = Toxicity in anti-DNP IgE sensitized BALB/c mouse assessed as piloerection at 40 mg/kg, po; assay type: organism-based; settings: in vivo
[16] = Toxicity in anti-DNP IgE sensitized BALB/c mouse assessed as diarrhea at 40 mg/kg, po; assay type: organism-based; settings: in vivo
[17] = Toxicity in anti-DNP IgE sensitized BALB/c mouse assessed as death at 40 mg/kg, po; assay type: organism-based; settings: in vivo
[18] = Toxicity in anti-DNP IgE sensitized BALB/c mouse assessed as ascites at 40 mg/kg, po; assay type: organism-based; settings: in vivo
[19] = Toxicity in anti-DNP IgE sensitized BALB/c mouse assessed as hepatopathy at 40 mg/kg, po; assay type: organism-based; settings: in vivo
[20] = biological target: T1, Tyrosine-protein kinase Tec (Homo sapiens) (UniProt P42680); test: Inhibition of human recombinant Tec (174 to end) at 5 nM by radiometric scintillation counting analysis relative to control
T1 sequence (whole entry): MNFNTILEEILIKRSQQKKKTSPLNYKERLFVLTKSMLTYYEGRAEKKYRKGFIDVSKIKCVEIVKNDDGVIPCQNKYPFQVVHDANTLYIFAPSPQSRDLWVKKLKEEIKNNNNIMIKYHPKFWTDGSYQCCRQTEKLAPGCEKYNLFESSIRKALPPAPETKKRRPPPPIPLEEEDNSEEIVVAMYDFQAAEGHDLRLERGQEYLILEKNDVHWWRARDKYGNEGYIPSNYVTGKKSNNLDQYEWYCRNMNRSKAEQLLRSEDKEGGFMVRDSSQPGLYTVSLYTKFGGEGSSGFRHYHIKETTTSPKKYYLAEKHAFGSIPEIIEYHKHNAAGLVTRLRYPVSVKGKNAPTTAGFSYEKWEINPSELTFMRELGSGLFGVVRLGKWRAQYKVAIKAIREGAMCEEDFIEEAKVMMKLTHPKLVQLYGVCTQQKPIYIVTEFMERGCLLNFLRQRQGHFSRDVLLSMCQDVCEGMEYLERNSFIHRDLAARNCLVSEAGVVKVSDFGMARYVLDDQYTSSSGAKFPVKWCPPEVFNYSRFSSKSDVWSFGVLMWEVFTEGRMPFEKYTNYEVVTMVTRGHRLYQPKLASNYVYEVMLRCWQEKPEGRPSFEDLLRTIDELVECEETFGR

[21] = biological target: T2, Tyrosine-protein kinase ITK/TSK (Homo sapiens) (UniProt Q08881); test: Inhibition of human recombinant ITK (352 to 617) at 50 nM by radiometric scintillation counting analysis relative to control
T2 sequence (whole entry): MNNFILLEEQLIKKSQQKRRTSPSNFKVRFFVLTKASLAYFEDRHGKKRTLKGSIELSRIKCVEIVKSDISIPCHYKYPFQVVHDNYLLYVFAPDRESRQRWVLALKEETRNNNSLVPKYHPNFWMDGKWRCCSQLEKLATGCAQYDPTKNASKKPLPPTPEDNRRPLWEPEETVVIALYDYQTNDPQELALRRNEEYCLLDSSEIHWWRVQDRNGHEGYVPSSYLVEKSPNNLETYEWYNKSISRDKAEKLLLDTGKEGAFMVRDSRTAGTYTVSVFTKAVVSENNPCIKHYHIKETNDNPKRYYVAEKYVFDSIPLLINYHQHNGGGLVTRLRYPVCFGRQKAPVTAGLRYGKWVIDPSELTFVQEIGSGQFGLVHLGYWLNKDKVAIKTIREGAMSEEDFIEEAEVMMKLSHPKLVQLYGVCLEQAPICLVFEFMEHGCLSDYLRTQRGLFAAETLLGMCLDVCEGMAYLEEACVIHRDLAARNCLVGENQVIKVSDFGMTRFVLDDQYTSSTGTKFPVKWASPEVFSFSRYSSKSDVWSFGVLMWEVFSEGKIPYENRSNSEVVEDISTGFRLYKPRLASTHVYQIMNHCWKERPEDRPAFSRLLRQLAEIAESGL

[22] = biological target: T1, Tyrosine-protein kinase Tec (Homo sapiens); test: Inhibition of human recombinant Tec (174 to end) at 50 nM by radiometric scintillation counting analysis relative to control
[23] = biological target: Tyrosine-protein kinase SYK (Homo sapiens) (UniProt P43405); test: Inhibition of human full length recombinant Syk at 5 nM by radiometric scintillation counting analysis relative to control
[24] = biological target: Tyrosine-protein kinase JAK1 (Homo sapiens) (UniProt P23458); test: Inhibition of human recombinant JAK1 at 5 nM radiometric scintillation counting analysis relative to control
Chain of Tyrosine-protein kinase JAK1 (Homo sapiens) (P23458 whole entry): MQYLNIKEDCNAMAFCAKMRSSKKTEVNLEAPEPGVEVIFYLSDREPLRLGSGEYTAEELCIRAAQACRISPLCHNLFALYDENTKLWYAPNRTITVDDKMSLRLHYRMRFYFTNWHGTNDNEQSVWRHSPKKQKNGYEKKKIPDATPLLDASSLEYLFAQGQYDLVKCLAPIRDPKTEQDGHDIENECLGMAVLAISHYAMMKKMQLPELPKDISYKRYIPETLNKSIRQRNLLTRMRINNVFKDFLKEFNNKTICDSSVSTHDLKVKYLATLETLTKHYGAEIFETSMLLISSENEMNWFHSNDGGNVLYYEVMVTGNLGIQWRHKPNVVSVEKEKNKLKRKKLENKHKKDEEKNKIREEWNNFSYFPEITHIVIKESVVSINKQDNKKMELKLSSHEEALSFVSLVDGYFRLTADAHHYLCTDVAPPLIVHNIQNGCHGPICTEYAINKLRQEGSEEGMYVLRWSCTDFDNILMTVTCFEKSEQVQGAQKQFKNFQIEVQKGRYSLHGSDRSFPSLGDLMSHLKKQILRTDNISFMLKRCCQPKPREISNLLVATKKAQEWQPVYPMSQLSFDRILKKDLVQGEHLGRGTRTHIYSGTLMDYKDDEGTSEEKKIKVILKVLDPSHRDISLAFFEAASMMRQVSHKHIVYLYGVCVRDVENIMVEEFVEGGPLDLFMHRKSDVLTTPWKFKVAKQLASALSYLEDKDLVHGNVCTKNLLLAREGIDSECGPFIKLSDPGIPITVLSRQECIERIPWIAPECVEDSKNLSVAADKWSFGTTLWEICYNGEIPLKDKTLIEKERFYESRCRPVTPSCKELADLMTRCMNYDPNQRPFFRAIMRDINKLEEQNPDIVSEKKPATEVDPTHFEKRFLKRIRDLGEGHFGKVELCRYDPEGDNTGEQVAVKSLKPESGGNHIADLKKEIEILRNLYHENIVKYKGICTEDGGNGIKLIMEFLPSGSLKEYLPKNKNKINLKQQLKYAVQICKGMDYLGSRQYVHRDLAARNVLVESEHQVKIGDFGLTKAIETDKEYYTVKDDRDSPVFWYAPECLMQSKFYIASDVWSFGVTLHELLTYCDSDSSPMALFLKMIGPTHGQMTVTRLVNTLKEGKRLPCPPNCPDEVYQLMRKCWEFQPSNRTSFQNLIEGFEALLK

Chain of Macrophage colony-stimulating factor 1 receptor (P07333 whole entry): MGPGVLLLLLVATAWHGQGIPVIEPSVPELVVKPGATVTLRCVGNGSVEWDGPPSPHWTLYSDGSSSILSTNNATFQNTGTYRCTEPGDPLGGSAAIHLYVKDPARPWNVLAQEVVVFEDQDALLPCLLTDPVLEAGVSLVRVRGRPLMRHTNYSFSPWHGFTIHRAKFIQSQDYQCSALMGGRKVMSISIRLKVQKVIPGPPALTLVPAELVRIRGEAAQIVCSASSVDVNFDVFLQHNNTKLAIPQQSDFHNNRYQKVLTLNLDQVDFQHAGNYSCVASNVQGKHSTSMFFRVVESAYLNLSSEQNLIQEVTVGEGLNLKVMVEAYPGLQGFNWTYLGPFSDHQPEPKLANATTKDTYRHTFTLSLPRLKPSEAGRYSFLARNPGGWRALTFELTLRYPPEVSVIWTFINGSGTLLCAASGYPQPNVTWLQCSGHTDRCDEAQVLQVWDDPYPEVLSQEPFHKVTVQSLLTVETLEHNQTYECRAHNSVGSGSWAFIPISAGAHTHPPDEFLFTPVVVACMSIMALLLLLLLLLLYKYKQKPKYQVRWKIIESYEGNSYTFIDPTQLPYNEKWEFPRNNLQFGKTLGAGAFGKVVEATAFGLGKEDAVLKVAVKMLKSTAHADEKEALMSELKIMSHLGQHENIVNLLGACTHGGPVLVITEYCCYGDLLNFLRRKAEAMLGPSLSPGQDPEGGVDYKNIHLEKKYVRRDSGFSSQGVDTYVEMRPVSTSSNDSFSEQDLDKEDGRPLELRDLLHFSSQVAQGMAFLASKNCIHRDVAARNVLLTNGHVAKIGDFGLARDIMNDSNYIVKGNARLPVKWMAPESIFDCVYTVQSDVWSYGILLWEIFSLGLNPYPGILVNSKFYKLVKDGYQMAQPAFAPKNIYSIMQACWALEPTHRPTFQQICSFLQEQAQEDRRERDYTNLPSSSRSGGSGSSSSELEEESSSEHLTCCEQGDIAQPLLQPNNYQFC
Chain of 1-phosphatidylinositol 4,5-bisphosphate phosphodiesterase gamma-1 (Rattus norvegicus) (P10686 whole entry): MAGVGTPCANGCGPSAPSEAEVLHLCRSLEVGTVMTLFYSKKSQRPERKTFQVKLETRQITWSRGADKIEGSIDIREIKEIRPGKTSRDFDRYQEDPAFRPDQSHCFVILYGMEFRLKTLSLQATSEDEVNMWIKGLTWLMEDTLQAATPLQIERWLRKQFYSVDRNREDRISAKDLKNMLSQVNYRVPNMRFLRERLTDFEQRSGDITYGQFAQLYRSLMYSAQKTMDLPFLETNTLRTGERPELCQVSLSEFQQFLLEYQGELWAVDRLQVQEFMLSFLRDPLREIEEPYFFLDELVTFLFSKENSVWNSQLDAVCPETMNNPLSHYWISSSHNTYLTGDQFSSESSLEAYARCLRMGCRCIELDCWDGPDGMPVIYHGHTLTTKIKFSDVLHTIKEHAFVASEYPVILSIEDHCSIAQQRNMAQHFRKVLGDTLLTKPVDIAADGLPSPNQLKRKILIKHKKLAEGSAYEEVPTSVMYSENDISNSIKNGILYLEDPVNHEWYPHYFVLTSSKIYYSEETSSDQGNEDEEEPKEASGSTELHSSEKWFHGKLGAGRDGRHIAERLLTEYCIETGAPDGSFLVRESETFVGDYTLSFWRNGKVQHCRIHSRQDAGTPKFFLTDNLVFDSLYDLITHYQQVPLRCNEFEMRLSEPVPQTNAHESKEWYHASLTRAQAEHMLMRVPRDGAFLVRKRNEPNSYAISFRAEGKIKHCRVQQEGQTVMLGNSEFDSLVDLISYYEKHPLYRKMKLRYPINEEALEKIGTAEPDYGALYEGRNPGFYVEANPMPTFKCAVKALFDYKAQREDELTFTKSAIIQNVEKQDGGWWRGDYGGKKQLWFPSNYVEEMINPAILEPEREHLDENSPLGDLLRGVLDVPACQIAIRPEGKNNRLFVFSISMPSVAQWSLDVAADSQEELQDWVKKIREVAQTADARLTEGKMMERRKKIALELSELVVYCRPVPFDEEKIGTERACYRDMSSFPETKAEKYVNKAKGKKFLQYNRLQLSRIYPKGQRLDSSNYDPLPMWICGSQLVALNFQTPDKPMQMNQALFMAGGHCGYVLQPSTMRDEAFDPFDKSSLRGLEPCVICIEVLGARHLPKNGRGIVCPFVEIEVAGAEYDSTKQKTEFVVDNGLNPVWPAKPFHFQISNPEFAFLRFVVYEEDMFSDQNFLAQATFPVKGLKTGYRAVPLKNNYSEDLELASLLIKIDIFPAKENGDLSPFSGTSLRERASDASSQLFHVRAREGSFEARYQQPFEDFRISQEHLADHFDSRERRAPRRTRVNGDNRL

- IC50 [2]: 22 nM
SMILES: Cc1ccc(C(=O)Nc2ccc(OC(F)(F)F)cc2)cc1C#Cc1cc(-c2cnn(C)c2)cnc1N
- selectivity ratio [1]: 16.3

SMILES: Cc1ccc(C(=O)Nc2cc(C(F)(F)F)cc(C(F)(F)F)c2)cc1C#Cc1cc(-c2cnn(C)c2)cnc1N
- selectivity ratio [1]: 148
- IC50 [2]: 48 nM
- inhibition at 0.04 µM (RBL-2H3 [3]): 112%
- inhibition [4]: Dose-Dependent Effect
- inhibition (RBL-2H3 [5]): Dose-Dependent Effect
- half-life [6]: 414 min
- Cmax [7]: 1940 ng/mL
- AUC(0-t) at 24 h [8]: 21300 ng·h/mL
- MRT [9]: 11.2 h
- Vd [10]: 4 L/kg
- bioavailability [11]: 99.9%
- half-life [12]: 334 min
- AUC(0-t) at 24 h [13]: 2130 ng·h/mL
- MRT [14]: 4.4 h
- Activity [15]: Non-Toxic
- Activity [16]: Non-Toxic
- Activity [17]: Non-Toxic
- Activity [18]: Non-Toxic
- Activity [19]: Non-Toxic
- inhibition [20]: 1%
- inhibition [21]: -1%
- inhibition [22]: 10%

- inhibition [23]: -2%
- inhibition [20]: -5%
- inhibition [21]: 3%
- inhibition [22]: -10%
- inhibition [24]: 14%
SMILES: Cc1ccc(C(=O)Nc2ccc(Cl)cc2Cl)cc1C#Cc1cc(-c2cnn(C)c2)cnc1N
